Tested on: 563 solid tumor cell lines
Test: Luminex assay in PRISM, 5 days treatment (AUC)
Type: cell-based
Set-up: AUC: scale not given here
Method: The AUC values provided in Table 80 below were calculated based on the Median Fluorescent Intensity values, the primary read out of the Luminex assay in PRISM. The following parameters were used in this assay: • 8 point dose was used in triplicate • max concentration of 10 μM was used with serial 4-fold dilutions (low of […]) • 563 adherent cell lines in 23 pools. • treatment duration was 5 days.

SMILES: O=C1CCC(N2Cc3cc(CNC(=O)C(F)(F)c4ccc(Cl)cc4)ccc3C2=O)C(=O)N1 (stereo not shown) [Compound 1, 2-(4-chlorophenyl)-N-((2-(2,6-dioxopiperidin-3-yl)-1-oxoisoindolin-5-yl)methyl)-2,2-difluoroacetamide]
- activity on solid tumor cell lines (AUC) (8 point dose, max 10 μM, 5 days): highest activity on lung, intestine, stomach, liver, pancreatic and kidney cell lines
- AUC (A101D_SKIN): 0.821
- AUC (A172_CENTRAL_NERVOUS_SYSTEM): 0.314
- AUC (A204_SOFT_TISSUE): 0.156
- AUC (A253_SALIVARY_GLAND): 0.864
- AUC (A375_SKIN): 0.795
- AUC (A498_KIDNEY): 0.845
- AUC (A549_LUNG): 0.857
- AUC (A673_BONE): 0.885
- AUC (A704_KIDNEY): 0.823
- AUC (A2058_SKIN): 0.818
- AUC (A2780_OVARY): 0.485
- AUC (ABC1_LUNG): 0.591
- AUC (ACCMESO1_PLEURA): 0.631
- AUC (ACHN_KIDNEY): 0.912
- AUC (AGS_STOMACH): 0.865
- AUC (AM38_CENTRAL_NERVOUS_SYSTEM): 0.543
- AUC (AN3CA_ENDOMETRIUM): 0.861
- AUC (BCPAP_THYROID): 0.782
- AUC (BECKER_CENTRAL_NERVOUS_SYSTEM): 0.874
- AUC (BEN_LUNG): 0.826
- AUC (BFTC909_KIDNEY): 0.843
- AUC (BHT101_THYROID): 0.858
- AUC (BHY_UPPER_AERODIGESTIVE_TRACT): 0.405
- AUC (BICR6_UPPER_AERODIGESTIVE_TRACT): 0.801
- AUC (BICR16_UPPER_AERODIGESTIVE_TRACT): 0.585
- AUC (BICR18_UPPER_AERODIGESTIVE_TRACT): 0.845
- AUC (BICR56_UPPER_AERODIGESTIVE_TRACT): 0.984
- AUC (BT474_BREAST): 0.801
- AUC (BT549_BREAST): 0.242
- AUC (BXPC3_PANCREAS): 0.916
- AUC (C32_SKIN): 0.881
- AUC (CADOES1_BONE): 0.566
- AUC (CAKI2_KIDNEY): 0.867
- AUC (CAL12T_LUNG): 0.366
- AUC (CAL27_UPPER_AERODIGESTIVE_TRACT): 0.812
- AUC (CAL29_URINARY_TRACT): 0.831
- AUC (CAL51_BREAST): 0.589
- AUC (CAL54_KIDNEY): 0.679
- AUC (CAL62_THYROID): 0.083
- AUC (CAL78_BONE): 0.798
- AUC (CAL120_BREAST): 0.812
- AUC (CALU6_LUNG): 0.794
- AUC (CAMA1_BREAST): 0.589
- AUC (CAPAN2_PANCREAS): 0.835
- AUC (CBAGPN_BONE): 0.236
- AUC (CCK81_LARGE_INTESTINE): 0.021
- AUC (CFPAC1_PANCREAS): 0.872
- AUC (CHL1_SKIN): 0.330
- AUC (CHLA10_BONE): 0.933
- AUC (CJM_SKIN): 0.215
- AUC (CL11_LARGE_INTESTINE): 0.849
- AUC (CL34_LARGE_INTESTINE): 0.604
- AUC (COLO678_LARGE_INTESTINE): 0.811
- AUC (COLO679_SKIN): 0.830
- AUC (COLO680N_OESOPHAGUS): 0.863
- AUC (COLO741_SKIN): 0.411
- AUC (COLO792_SKIN): 0.629
- AUC (COLO800_SKIN): 0.810
- AUC (COLO829_SKIN): 0.748
- AUC (CORL23_LUNG): 0.879
- AUC (CORL105_LUNG): 0.824
- AUC (COV318_OVARY): 0.883
- AUC (COV362_OVARY): 0.824
- AUC (COV644_OVARY): 0.994
- AUC (DANG_PANCREAS): 0.793
- AUC (DAOY_CENTRAL_NERVOUS_SYSTEM): 0.928
- AUC (DBTRG05MG_CENTRAL_NERVOUS_SYSTEM): 0.795
- AUC (DETROIT562_UPPER_AERODIGESTIVE_TRACT): 0.855
- AUC (DMS53_LUNG): 0.903
- AUC (DMS273_LUNG): 0.771
- AUC (DU145_PROSTATE): 0.878
- AUC (DV90_LUNG): 0.174
- AUC (EBC1_LUNG): 0.960
- AUC (ECGI10_OESOPHAGUS): 0.877
- AUC (EFE184_ENDOMETRIUM): 0.679
- AUC (EFM19_BREAST): 0.917
- AUC (EFM192A_BREAST): 0.766
- AUC (EFO21_OVARY): 0.843
- AUC (EFO27_OVARY): 0.534
- AUC (EKVX_LUNG): 0.837
- AUC (EN_ENDOMETRIUM): 0.831
- AUC (ES2_OVARY): 0.801
- AUC (ESS1_ENDOMETRIUM): 0.512
- AUC (EW8_BONE): 0.985
- AUC (EWS502_BONE): 0.875
- AUC (FADU_UPPER_AERODIGESTIVE_TRACT): 0.859
- AUC (FTC133_THYROID): 0.833
- AUC (FTC238_THYROID): 0.8424
- AUC (G292CLONEA141B1_BONE): 0.2746
- AUC (G402_SOFT_TISSUE): 0.8297
- AUC (GAMG_CENTRAL_NERVOUS_SYSTEM): 0.365
- AUC (GB1_CENTRAL_NERVOUS_SYSTEM): 0.8359
- AUC (GCIY_STOMACH): 0.8662
- AUC (GI1_CENTRAL_NERVOUS_SYSTEM): 0.5874
- AUC (GMS10_CENTRAL_NERVOUS_SYSTEM): 0.4048
- AUC (GOS3_CENTRAL_NERVOUS_SYSTEM): 0.5047
- AUC (GP2D_LARGE_INTESTINE): 0.796
- AUC (HARA_LUNG): 0.7964
- AUC (HCC15_LUNG): 0.9583
- AUC (HCC38_BREAST): 0.4873
- AUC (HCC44_LUNG): 0.906
- AUC (HCC56_LARGE_INTESTINE): 0.849
- AUC (HCC78_LUNG): 0.793
- AUC (HCC366_LUNG): 0.3183
- AUC (HCC827_LUNG): 0.516
- AUC (HCC1143_BREAST): 0.8133
- AUC (HCC1195_LUNG): 0.9004
- AUC (HCC1359_LUNG): 0.875
- AUC (HCC1395_BREAST): 0.9508
- AUC (HCC1419_BREAST): 0.8487
- AUC (HCC1428_BREAST): 0.9167
- AUC (HCC1438_LUNG): 0.9701
- AUC (HCC1806_BREAST): 0.8775
- AUC (HCC1937_BREAST): 0.579
